The record followed here is publication PMC7316895, “Identification of a Compound That Inhibits the Growth of Gram-Negative Bacteria by Blocking BamA–BamD Interaction” (Frontiers in Microbiology, 2020).

The target in the experiment is T1, BamA (Escherichia coli, UniProt P0A940).
T1 construct: biotinylated for BLI
The experiment can be described thus: biolayer interferometry ([…] global fit); supported by GST pull-down showing dose-dependent loss of BamA–BamD interaction. It counts as binding. A general note: BLI is a label-free optical method that tracks binding on a fibre tip over time.

As for `COC(=O)c1c(NC(=O)c2ccc([N+](=O)[O-])o2)sc2c1CCN(C(C)C)C2` [IMB-H4], the Kd is 3.90E^–6.
